We go through 23 compounds from patent US20180002312A1, “TETRA- AND PENTASUBSTITUTED BENZIMIDAZOLIUM COMPOUNDS USEFUL IN THE TREATMENT OF RESPIRATORY DISEASES” (Boehringer Ingelheim International GmbH, priority 2015, published 2018).

By Papp A→B is commonly meant the apparent permeability from the apical to the basolateral side of a cell layer. Read a low Papp A→B as slow passage. For orientation: Papp B→A means the apparent permeability from the basolateral to the apical side of a cell layer. What is called IC50 is the concentration that gives 50% inhibition.

Data set [1] in a line: Permeability in CALU-3 cells. Type of data set: in vitro ADME. The following applies: human, CALU-3 monolayers, pH 7.4, 37° C., 10 μM compound; for Papp A→B at 90 min, 10 μM: apical-to-basal; for Papp B→A at 90 min, 10 μM: basal-to-apical. The method, then:
Permeability in CALU-3 Cells:
Permeability measurements across polarized, confluent CALU-3 cell monolayers grown on permeable filter supports are used to provide information on the potential of a compound to pass the lung epithelium.
CALU-3 cells (1-2×10^5 cells/1 cm^2 area) are seeded on filter inserts (Costar transwell polycarbonate filters, 0.4 μm pore size) and cultured (for 10-12 days DMEM) until tight monolayers are formed. Compounds of interest are dissolved in appropriate solvent (DMSO, 10 mM stock solution). […] The transport solution (TL) is applied to the apical or basolateral donor side for measuring A-B or B-A permeability (3 filter replicates), respectively. The receiver side contains the same buffer as the donor side. After 30 min of accommodation, samples are collected at the start t0=0 min and at the end of the experiment tn=90 min from the donor and at 0, 30, 60, and 90 min also from the receiver chamber. Volume removed is […] by HTP-4 buffer. The compound concentration in the samples is measured by HPLC-MS/MS or scintillation counting. The permeability coefficient (Papp) and efflux ratio are calculated according to: Papp [cm/s]=(concentration receiver [nM]*volume receiver [mL]/time interval [sec])*(1/filter area)*(1/donor concentration [nM]).

Data set [2] concerns the target T1, ENaC (Epithelial Sodium Channel) (Mus musculus, UniProt Q61180+Q9WU38+Q9WU39).
T1 construct: Mouse kidney M-1 cells were cultivated in DMEM; endogenous in cells; host or cells: mouse kidney M-1 cells (cortical collecting duct line), dexamethasone-treated, grown on transwell filters
T1 sequence (Q61180 1-699): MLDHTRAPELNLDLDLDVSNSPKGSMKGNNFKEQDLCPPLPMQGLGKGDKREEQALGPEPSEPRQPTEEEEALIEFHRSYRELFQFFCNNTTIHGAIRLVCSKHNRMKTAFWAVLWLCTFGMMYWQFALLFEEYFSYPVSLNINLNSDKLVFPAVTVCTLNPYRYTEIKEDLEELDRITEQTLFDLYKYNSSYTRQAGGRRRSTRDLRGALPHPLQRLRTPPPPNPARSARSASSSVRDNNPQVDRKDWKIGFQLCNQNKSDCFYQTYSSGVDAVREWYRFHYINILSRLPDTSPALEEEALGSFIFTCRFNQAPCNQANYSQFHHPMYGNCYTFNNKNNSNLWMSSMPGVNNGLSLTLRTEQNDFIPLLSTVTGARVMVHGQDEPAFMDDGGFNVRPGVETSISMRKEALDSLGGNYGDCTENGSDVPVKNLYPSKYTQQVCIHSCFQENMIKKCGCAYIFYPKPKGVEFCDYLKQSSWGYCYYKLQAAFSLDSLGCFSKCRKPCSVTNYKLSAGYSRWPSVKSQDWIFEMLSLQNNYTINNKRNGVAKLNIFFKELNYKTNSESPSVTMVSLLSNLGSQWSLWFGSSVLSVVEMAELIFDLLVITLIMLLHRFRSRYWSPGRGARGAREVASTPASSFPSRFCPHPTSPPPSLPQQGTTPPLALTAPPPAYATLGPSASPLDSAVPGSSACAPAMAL
T1 sequence (Q9WU38 1-638): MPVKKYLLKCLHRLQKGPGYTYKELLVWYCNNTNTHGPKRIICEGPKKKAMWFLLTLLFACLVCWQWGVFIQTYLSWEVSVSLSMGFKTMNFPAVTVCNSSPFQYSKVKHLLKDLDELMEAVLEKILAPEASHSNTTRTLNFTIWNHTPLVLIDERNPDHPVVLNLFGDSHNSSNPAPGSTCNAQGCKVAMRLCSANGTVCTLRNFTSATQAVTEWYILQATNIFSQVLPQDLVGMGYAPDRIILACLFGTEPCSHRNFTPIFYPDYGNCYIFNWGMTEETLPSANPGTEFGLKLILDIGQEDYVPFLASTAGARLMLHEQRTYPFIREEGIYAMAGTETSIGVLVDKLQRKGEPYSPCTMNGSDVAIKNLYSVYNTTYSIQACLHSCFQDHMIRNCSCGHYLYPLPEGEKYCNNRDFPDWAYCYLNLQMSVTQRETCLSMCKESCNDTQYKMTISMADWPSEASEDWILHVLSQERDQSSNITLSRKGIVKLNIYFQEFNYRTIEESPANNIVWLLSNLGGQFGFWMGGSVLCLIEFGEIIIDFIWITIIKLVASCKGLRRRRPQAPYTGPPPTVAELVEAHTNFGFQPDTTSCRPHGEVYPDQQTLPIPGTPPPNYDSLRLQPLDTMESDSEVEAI
T1 sequence (Q9WU39 1-655): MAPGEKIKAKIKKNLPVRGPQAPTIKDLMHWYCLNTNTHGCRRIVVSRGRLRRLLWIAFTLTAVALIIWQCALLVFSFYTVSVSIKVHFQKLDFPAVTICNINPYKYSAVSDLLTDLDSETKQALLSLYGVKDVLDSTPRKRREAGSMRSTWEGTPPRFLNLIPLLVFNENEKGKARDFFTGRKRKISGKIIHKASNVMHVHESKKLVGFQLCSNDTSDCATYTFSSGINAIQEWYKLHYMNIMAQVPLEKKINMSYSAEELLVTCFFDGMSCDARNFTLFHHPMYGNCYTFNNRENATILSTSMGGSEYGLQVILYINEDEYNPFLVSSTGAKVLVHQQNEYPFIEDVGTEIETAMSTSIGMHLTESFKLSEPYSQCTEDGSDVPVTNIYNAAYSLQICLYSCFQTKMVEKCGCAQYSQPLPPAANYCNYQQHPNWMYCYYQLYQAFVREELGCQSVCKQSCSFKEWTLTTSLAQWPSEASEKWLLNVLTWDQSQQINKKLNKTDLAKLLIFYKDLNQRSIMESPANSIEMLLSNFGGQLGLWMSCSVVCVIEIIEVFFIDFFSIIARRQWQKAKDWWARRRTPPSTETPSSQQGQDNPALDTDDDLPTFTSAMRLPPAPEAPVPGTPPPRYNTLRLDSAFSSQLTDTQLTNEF
Kind of data set: Ussing Chamber assay: inhibition of amiloride sensitive short circuit current in M-1 cells. It counts as cell-based. The method, then:
Ussing Chamber: Mouse kidney M-1 cells were cultivated in DMEM containing 5% FCS and 5 μM dexamethasone for 10 to 12 days on polyester transwell filters. Filters were inserted into a teflon-coated well-plate which fit into the ussing chamber system. Prior to measurement the medium of M-1 cells was replaced with Caco-2 transport buffer (Invitrogen, Germany). During measurements, the Ussing chamber temperature was kept at 37° C. Short circuit currents (I_sc) were measured in the voltage-clamp mode with the software package Lab View for data acquisition and analysis. The transepithelial electrical resistance (TEER) was determined by the application of voltage steps of ±5 mV every 5 sec. Compounds were administered at a final concentration of 3 μM or at increasing concentrations (1-3-10 μM) to the apical solution. At the end of each experiment the amiloride sensitive I_SC was measured by adding 3 μM amiloride to the apical compartment. Results are expressed as inhibition in percent of the amiloride effect or as IC50.

[3] abbreviates: Ussing chamber, mouse kidney M-1 cells, short circuit current, apical administration, 37° C., read-out: IC50.

Like-named read-outs stand apart in the source and are kept apart here.

Consider `CCn1c(CNC(=O)c2nc(Cl)c(N)nc2N)[n+](Cc2cccc(C(=O)N3CC[S+]([O-])CC3)c2)c2ccc(OCCO)cc21.O=C([O-])C(F)(F)F` [Example 1.08], for which, in data set [1], the Papp A→B at 90 min, 10 μM is 0.1 ×10⁻⁶ cm/s and the Papp B→A at 90 min, 10 μM turned out to be 0.09 ×10⁻⁶ cm/s. Besides, in data set [2] (setting [3]), the IC50 was 16 nM.

For the compound `CC[n+]1c(CNC(=O)c2nc(Cl)c(N)nc2N)n(CC2CCOCC2)c2cc(OCCC[n+]3cc([O-])cc(OC)c3)c(Cl)cc21.O=C([O-])C(F)(F)F` [Example 1.13], in data set [1], the Papp A→B at 90 min, 10 μM came to 0.4 ×10⁻⁶ cm/s and the apparent permeability from basolateral to apical (Papp B→A) at 90 min, 10 μM was determined as 0.1 ×10⁻⁶ cm/s. In addition, the IC50 in data set [2] (setting [3]) was 2 nM.

Consider `CCNC(=O)N1CCC(n2c(CNC(=O)c3nc(Cl)c(N)nc3N)[n+](CC)c3ccc(OCC(=O)O)cc32)CC1` [Example 5.01], for which, in data set [2] (setting [3]), the half-maximal inhibitory concentration (IC50) was found to be 18 nM.

`CCN(Cc1ncccc1[O-])C(=O)COc1ccc2c(c1)n(CC)c(CNC(=O)c1nc(Cl)c(N)nc1N)[n+]2CC1CCOCC1` [Example 1.17]: the IC50 in data set [2] (setting [3]) stood at 1 nM.

Regarding `CCn1c(CNC(=O)c2nc(Cl)c(N)nc2N)[n+](CC2CCOCC2)c2ccc(OCC(=O)N(Cc3ccccc3)Cc3nc(C)ccc3[O-])cc21` [Example 1.05], in data set [2] (setting [3]), the IC50 was 5 nM.

As for `CCn1c(CNC(=O)c2nc(Cl)c(N)nc2N)[n+](CC2CCOCC2)c2ccc(OCC(=O)N(C)Cc3nc(C)ccc3[O-])cc21` [Example 1.06], in data set [2] (setting [3]), the IC50 was 1 nM.

In the case of `CC[n+]1c(CNC(=O)c2nc(Cl)c(N)nc2N)n(C[C@@H]2CCCO2)c2cc(OCC(=O)N3CCN(C(=O)OCc4ccccc4)CC3)ccc21` [Example 1.14], in data set [2] (setting [3]), the IC50 was 7 nM.

In data set [1], `CC[n+]1c(CNC(=O)c2nc(Cl)c(N)nc2N)n(C[C@@H]2CCCO2)c2cc(OCC(=O)NCc3ccccn3)ccc21.O=C([O-])C(F)(F)F` [Example 2.01] displayed a Papp A→B at 90 min, 10 μM of 0.03 ×10⁻⁶ cm/s and a Papp B→A at 90 min, 10 μM of 0.05 ×10⁻⁶ cm/s. In addition, the IC50 in data set [2] (setting [3]) stood at 1 nM.

In data set [1], `C[n+]1c(CNC(=O)c2nc(Cl)c(N)nc2N)n(C[C@@H]2CCCO2)c2cc(OCCO)ccc21.O=C([O-])C(F)(F)F` [Example 1.04] came in with a Papp A→B at 90 min, 10 μM of 0.3 ×10⁻⁶ cm/s and a Papp B→A at 90 min, 10 μM of 0.2 ×10⁻⁶ cm/s. Besides, the half-maximal inhibitory concentration (IC50) in data set [2] (setting [3]) came out at 3 nM.

Regarding `CCNC(=O)N1CCC(n2c(CNC(=O)c3nc(Cl)c(N)nc3N)[n+](CC)c3ccc(OCC(=O)NC4CCNCC4)cc32)CC1` [Example 3.02], the IC50 in data set [2] (setting [3]) worked out at 3 nM.

As to `CC[n+]1c(CNC(=O)c2nc(Cl)c(N)nc2N)n(CCOCCn2cc(C(=O)N(C)C)ccc2=O)c2cc(OCCO)ccc21` [Example 1.11], the IC50 in data set [2] (setting [3]) was 26 nM.

As for `CC[n+]1c(CNC(=O)c2nc(Cl)c(N)nc2N)n(C[C@@H]2CCCO2)c2cc(OCC(=O)N3CC[S+]([O-])CC3)ccc21.O=C([O-])C(F)(F)F` [Example 1.01], in data set [1], the Papp A→B at 90 min, 10 μM turned out to be 0.5 ×10⁻⁶ cm/s and the Papp B→A at 90 min, 10 μM was 0.08 ×10⁻⁶ cm/s. In data set [2] (setting [3]), the IC50 stood at 1 nM.

For `CC[n+]1c(CNC(=O)c2nc(Cl)c(N)nc2N)n(CCCCP(=O)([O-])O)c2cc(O)ccc21` [Example 7.01], the IC50 in data set [2] (setting [3]) is 63 nM.

Regarding `CCn1c(CNC(=O)c2nc(Cl)c(N)nc2N)[n+](CC2CCOCC2)c2ccc(OCC(=O)NCc3nc(C)ccc3[O-])cc21` [Example 1.07], the IC50 in data set [2] (setting [3]) worked out at 2 nM.

In the case of `CC[n+]1c(CNC(=O)c2nc(Cl)c(N)nc2N)n(CCOCCn2ccccc2=O)c2cc(OCP(C)(C)=O)ccc21.O=C([O-])C(F)(F)F` [Example 1.03], in data set [1], the Papp A→B at 90 min, 10 μM stood at 0.2 ×10⁻⁶ cm/s and the Papp B→A at 90 min, 10 μM is 0.07 ×10⁻⁶ cm/s. In addition, in data set [2] (setting [3]), the IC50 came out at 49 nM.

In the case of `CC[n+]1c(CNC(=O)c2nc(Cl)c(N)nc2N)n(CCOCCN2CCCCC2=O)c2cc(OCP(C)(C)=O)ccc21` [Example 1.16], in data set [2] (setting [3]), the IC50 worked out at 87 nM.

For `CCNC(=O)N1CCC(n2c(CNC(=O)c3nc(Cl)c(N)nc3N)[n+](CC)c3ccc(OCC(=O)NC4CCN(CC)CC4)cc32)CC1` [Example 4.02], in data set [2] (setting [3]), the IC50 stood at 2 nM.

In data set [2], `CCOP(=O)([O-])CCCCn1c(CNC(=O)c2nc(Br)c(N)nc2N)[n+](CC)c2ccc(O)cc21` [Example 6.01] registered an IC50 of 25 nM.

`Nc1nc(N)c(C(=O)NCc2n(C[C@@H]3CCCO3)c3cc(OCCO)ccc3[n+]2CCOCCO)nc1Cl` [Example 1.09]: in data set [2] (setting [3]), the IC50 was 3 nM.

`CC[n+]1c(CNC(=O)c2nc(Cl)c(N)nc2N)n(C[C@@H]2CCCO2)c2cc(OCC(=O)N3C[C@@H](O)[C@H](O)C3)ccc21` [Example 1.15]: the IC50 in data set [2] (setting [3]) was determined as 2 nM.

Turning to `CCCCCCN1CCC(NC(=O)COc2ccc3c(c2)n(C2CCN(C(=O)NCC)CC2)c(CNC(=O)c2nc(Cl)c(N)nc2N)[n+]3CC)CC1` [Example 4.01], the IC50 in data set [2] (setting [3]) was 4 nM.

`CCn1c(CNC(=O)c2nc(Cl)c(N)nc2N)[n+](Cc2cccnc2)c2ccc(OCC(=O)N(C)C)cc21.O=C([O-])C(F)(F)F` [Example 1.02]: in data set [1], the Papp A→B at 90 min, 10 μM was found to be 0.4 ×10⁻⁶ cm/s and the Papp B→A at 90 min, 10 μM turned out to be 0.2 ×10⁻⁶ cm/s. Moreover, the IC50 in data set [2] (setting [3]) is 6 nM.

`CCn1c(CNC(=O)c2nc(Cl)c(N)nc2N)[n+](CC2CCOCC2)c2ccc(OCC(=O)N(Cc3nc(C)ccc3[O-])C[C@H](C)O)cc21` [Example 1.12]: the IC50 in data set [2] (setting [3]) is 2 nM.
